# Legend:
# Type in all cases: cell-based, human
# [1] = tested on: R. oryzae germlings on endothelial cells; assay: Differential fluorescence assay of adherence and endocytosis of R. oryzae germlings by endothelial cells; details: for Reduction of endothelial cell endocytosis of R. oryzae: phenanthroline 60 μM for 16 hours, cytochalasin D 200 nM
# Experimental: The number of organisms endocytosed by endothelial cells or CHO cells was determined using a modification of a previously described differential fluorescence assay (Ibrahim et al., Infect Immun. 63(11):4368-4374 (1995)). Briefly, 12-mm glass coverslips in a 24-well cell culture plate were coated with fibronectin for at least 4 hours and seeded with endothelial or CHO cells until confluency. After washing twice with prewarmed HBSS, the cells were then infected with 10^5 cells of R. oryzae in RPMI 1640 medium that had been germinated for 1 hour. Following incubation for 3 hours, the cells were fixed in 3% paraformaldehyde and were stained for 1 hour with 1% Uvitex (a gift from Jay Isharani, Ciba-Geigy, Greensboro, N.C., USA), which specifically binds to the chitin of the fungal cell wall. After washing 3 times with PBS, the coverslips were mounted on a glass slide with a drop of ProLong Gold antifade reagent and sealed with nail polish. The total number of cell-associated organisms (i.e., germlings adhering to monolayer) was determined by phase-contrast microscopy. The same field was examined by epifluorescence microscopy, and the number of uninternalized germlings (which were brightly fluorescent) was determined. The number of endocytosed organisms was calculated by subtracting the number of fluorescent organisms from the total number of visible organisms. At least 400 organisms were counted in 20-40 different fields on each slide. Two slides per arm were used for each experiment, and the experiment was performed in triplicate on different days. […]
# To determine the effects of chelating endothelial cell iron on interactions with R. oryzae, endothelial cells were incubated with different concentrations of phenanthroline for 16 hours. To prevent chelation of the radioisotope, ^51Cr was added to endothelial cells 24 hours prior to the addition of phenanthroline (Fratti et al., Infect Immun. 66(1):191-196 (1998)). To confirm that the effects of phenanthroline on R. oryzae-induced endocytosis by and damage of endothelial cells were due to chelation of endothelial cell iron, exogenous iron in the form of hemin was added to endothelial cells at a final concentration of 20 μM, 2 hours before phenanthroline (Fratti et al., supra). As a positive control for prevention of endocytosis, the microfilament disruptant cytochalasin D (Sigma-Aldrich) was added at a concentration of 200 nM simultaneously with R. oryzae germlings, and endocytosis was determined as above (Ibrahim et al., Infect Immun. 63(11):4368-4374 (1995)). […]
# [2] = tested on: R. oryzae germlings on endothelial cells; assay: 51Cr release assay of R. oryzae-induced endothelial cell damage
# Experimental: R. oryzae-induced endothelial or CHO cell damage was quantified by using a chromium (^51Cr) release assay (Ibrahim et al., J Infect Dis. 198(7):1083-1090 (2008)). Briefly, endothelial cells or CHO cells grown in 96-well tissue culture plates containing detachable wells were incubated with 1 μCi per well of Na2^51CrO4 (ICN) in M-199 medium (for endothelial cells) or Alpha minimum Eagle's medium (for CHO cells) for 16 hours.
# On the day of the experiment, the unincorporated ^51Cr was aspirated, and the wells were washed twice with warmed HBSS (Irvine Scientific). Cells were infected with fungal germlings (1.5×10^5 germinated for 1 hour) suspended in 150 μl RPMI 1640 medium (Irvine Scientific) supplemented with glutamine. Spontaneous ^51Cr release was determined by incubating endothelial or CHO cells in RPMI 1640 medium supplemented with glutamine without R. oryzae. […] The amount of ^51Cr in the aspirate and the detached well was determined by gamma counting. […] After the data were corrected for variations in the amount of tracer incorporated in each well, the percentage of specific endothelial cell release of ^51Cr was calculated by the following formula: [(experimental release×2)−(spontaneous release×2)]/[total incorporation−(spontaneous release×2)]. […]
# GRP78 transcript = assay: Quantification of GRP78 expression in endothelial cells by real time RT-PCR; details: for GRP78 expression: data not shown
# Experimental: The transductions were performed according to the manufacturer's protocol. Briefly, 1.6×10^4 endothelial cells were seeded into 96-well plate and incubated for about 20 hours at 37° C. in a 5% CO2 incubator. Cells were infected with lentiviral particles at an MOI of 20 in the presence of 8 μg/ml polybrene (Sigma-Aldrich) overnight. The transduced cells were incubated in fresh M199 medium for 4 more days. Puromycin at 0.2 μg/ml was added to select for puromycin-resistant cell pools, which usually took approximately 10 days of incubating at 37° C. in 5% CO^2. The puromycin-resistant cells were passaged until an appropriate amount of cells was obtained for endocytosis or damage assays as above. Reduction of GRP78 expression was confirmed by using real time RT-PCR (see below).
# For quantification of GRP78 expression in endothelial or CHO cells, real time RT-PCR was carried out using a Power SYBR Green Cells-to-CT kit (Applied Biosystems) to extract RNA from 2×10^4 cells. Primers to amplify GRP78 from endothelial cells and CHO cells were 5′-[…]-3′ (SEQ ID NO: 3) and 5′-[…]-3′ (SEQ ID NO: 4). Primers 5′-ACCATCTTCCAGGAGCGAG-3′ (SEQ ID NO: 5) and 5′-TAAGCAGTTGGTGGTGCAG-3′ (SEQ ID NO: 6) were used to amplify the housekeeping gene GAPDH, which was used as a control.
# To study the effect of acidosis, endothelial cells exposed to different pHs, ranging from 6.8 to 7.4, were grown in MEM buffered with HEPES for 5 hours in the presence or absence of phenanthroline. Next, endothelial cells were washed twice with cold PBS, and GRP78 total expression was quantified by real-time RT-PCR. […] To study the effect of hyperosmolarity and statins on GRP78 expression, endothelial cells in MEM were incubated with 1, 4, or 8 mg/ml mannitol or 5, 20, or 40 μg/ml lovastatin for 20 hours. […] GRP78 expression, endocytosis, and damage assays were conducted as above.
# GRP78 = assay: Cell surface expression of GRP78 on endothelial cells by FACS; details: high iron levels (0, 15, or 50 μM FeCl3 tested); flow cytometry
# Experimental: Cell surface expression of GRP78 on endothelial cells exposed to varying concentrations of FeCl3 was quantified using FACS analysis. Briefly, endothelial cells grown in 25-cm flasks were dissociated using 1.5 ml enzyme-free dissociation buffer (Invitrogen). Cells were blocked with 50% goat serum, then stained with monoclonal anti-GRP78 Ab (BD Biosciences) at 1:100 for 1 hour. Endothelial cells were counterstained with ALEXA FLUOR 488-labeled anti-mouse IgG at 1:100 for 1 hour. Endothelial cells exposed to a similar concentration of FeCl3 or glucose and stained with an isotype matching control IgG (BD Biosciences) were used as negative control. A FACSCaliber (BD) instrument equipped with an argon laser emitting at 488 nm was used for flow cytometric analysis. Fluorescence data were collected with logarithmic amplifiers. The population percent fluorescence of 5×10^3 events was calculated using CellQuest software (BD).
# [3] = 15 or 50 μM FeCl3, vs no exogenous FeCl3
molecule,measurement,setting,value
[Cl][Fe]([Cl])[Cl] [FeCl3],Enhancement of R. oryzae-induced endocytosis,[1]; [3],80%
same,Enhancement of R. oryzae-induced endothelial cell damage,[2]; [3],80%
same,Increase in endothelial cell GRP78 expression,"GRP78 transcript; FeCl3 at iron concentrations of DKA sera, 5 hours, vs no iron",≤ 12 fold
same,Increase of surface expression of GRP78 protein,GRP78,150%
C=C1[C@@H](C)[C@H]2[C@H](Cc3ccccc3)NC(=O)[C@]23[C@H](OC(C)=O)/C=C/[C@@](C)(O)C(=O)[C@@H](C)C/C=C/[C@H]3[C@@H]1O [cytochalasin D],Reduction of endothelial cell endocytosis of R. oryzae,[1],approximately 70%
CC[C@H](C)C(=O)O[C@H]1C[C@@H](C)C=C2C=C[C@H](C)[C@H](CC[C@@H]3C[C@@H](O)CC(=O)O3)[C@H]21 [lovastatin],GRP78 expression,"GRP78 transcript; lovastatin 5, 20, or 40 μg/ml for 20 hours",No evidence of alterations in expression
OC[C@@H](O)[C@@H](O)[C@H](O)[C@H](O)CO [mannitol],GRP78 expression,"GRP78 transcript; mannitol 1, 4, and 8 mg/ml for 20 hours",No change in GRP78 expression
c1cnc2c(c1)ccc1cccnc12 [phenanthroline],Reduction of endothelial cell endocytosis of R. oryzae,[1],approximately 70%
same,R. oryzae-induced endothelial cell damage,"[2]; varying concentrations of phenanthroline for 16 h, removed before assay",prevented R. oryzae-induced endothelial cell damage in a concentration-dependent manner
same,Endothelial cell GRP78 expression in the setting of acidosis,"GRP78 transcript; pH 6.8 to 7.4, 5 hours, with phenanthroline",reversed GRP78 expression back to normal levels
hemin [exogenous iron],Effect on the inhibition of endocytosis caused by the iron chelator phenanthroline,[1]; hemin 20 μM added 2 hours before phenanthroline,completely reversed the inhibition of endocytosis
